Test results published in PubChem BioAssay (NCI).
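GI50: concentration for 50% inhibition of growth. TGI: total growth inhibition.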

Columns and labels:
Experiment in all cases: NCI anticancer screen, dose series, 384-well format
[1] = test system: M14 melanoma
[2] = test system: SK-OV-3 ovarian
[3] = test system: MOLT-4 leukemia
[4] = test system: TK-10 renal
[5] = test system: BT-549 breast
[6] = test system: SK-MEL-5 melanoma
[7] = test system: MDA-MB-435 melanoma
[8] = test system: A549 NSCLC
[9] = test system: SNB-19 CNS
[10] = test system: SF-268 CNS
[11] = test system: HCC-2998 colon
[12] = test system: OVCAR-5 ovarian
[13] = test system: MALME-3M melanoma
[14] = test system: HOP-62 NSCLC
[15] = test system: PC-3 prostate
[16] = test system: SF-539 CNS
[17] = test system: UACC-62 melanoma
[18] = test system: NCI-H23 lung
[19] = test system: U251 glioblastoma
[20] = test system: KM12 colon
[21] = test system: OVCAR-3 ovarian
[22] = test system: SNB-75 CNS
[23] = test system: SK-MEL-2 melanoma
[24] = test system: HS 578T breast
[25] = test system: K-562 leukemia
[26] = test system: HT29 colon
[27] = test system: SN12C renal
[28] = test system: A498 renal
[29] = test system: RPMI-8226 leukemia
[30] = test system: HOP-92 NSCLC
[31] = test system: NCI-H522 lung
[32] = test system: NCI/ADR-RES ovarian
[33] = test system: HCT-116 colon
[34] = test system: 786-0 renal
[35] = test system: T-47D breast
[36] = test system: HCT-15 colon
[37] = test system: MDA-MB-231 breast
[38] = test system: SK-MEL-28 melanoma
[39] = test system: SR leukemia
[40] = test system: CCRF-CEM leukemia
[41] = test system: RXF 393 renal
[42] = test system: MCF7 breast
[43] = test system: CAKI-1 renal
[44] = test system: UO-31 renal
[45] = test system: OVCAR-4 ovarian
[46] = test system: NCI-H460 NSCLC
[47] = test system: EKVX NSCLC
[48] = test system: NCI-H322M lung
[49] = test system: ACHN renal
[50] = test system: LOX IMVI melanoma
[51] = test system: NCI-H226 lung
[52] = test system: DU-145 prostate
[53] = test system: HL-60(TB) leukemia
[54] = test system: IGROV1 ovarian
[55] = test system: SW-620 colon
[56] = test system: SF-295 CNS
[57] = test system: UACC-257 melanoma
[58] = test system: MDA-MB-468 breast

**Q.** For `CC(C)C[C@H](NC(=O)CNC(=O)c1cc(Cl)ccc1Cl)B(O)O`, which GI50 [1] is on record?
**A.** 17.1 nM

**Q.** What about the TGI [1] of the same molecule?
**A.** 32.4 nM

**Q.** What about the GI50 [2] of the same molecule?
**A.** 184 nM

**Q.** What about the TGI [2] of the same molecule?
**A.** 1520 nM

**Q.** And the GI50 [3]?
**A.** < 10 nM

**Q.** And the TGI [3]?
**A.** 11.4 nM

**Q.** What about the GI50 [4] of the same molecule?
**A.** 20.8 nM

**Q.** What about the TGI [4] of the same molecule?
**A.** 54 nM

**Q.** And the GI50 [5]?
**A.** 20.6 nM

**Q.** And the TGI [5]?
**A.** 36.3 nM

**Q.** What about the GI50 [6] of the same molecule?
**A.** 19.7 nM

**Q.** What about the TGI [6] of the same molecule?
**A.** 41.7 nM

**Q.** And the GI50 [7]?
**A.** 16 nM

**Q.** What about the TGI [7] of the same molecule?
**A.** 30.2 nM

**Q.** What about the GI50 [8] of the same molecule?
**A.** 130 nM

**Q.** And the TGI [8]?
**A.** 1680 nM

**Q.** What about the GI50 [9] of the same molecule?
**A.** 84.2 nM

**Q.** And the TGI [9]?
**A.** 421 nM

**Q.** What about the GI50 [10] of the same molecule?
**A.** 26 nM

**Q.** What about the TGI [10] of the same molecule?
**A.** 60.6 nM

**Q.** What about the GI50 [11] of the same molecule?
**A.** 30.6 nM

**Q.** What about the TGI [11] of the same molecule?
**A.** 130 nM

**Q.** What about the GI50 [12] of the same molecule?
**A.** 66.6 nM

**Q.** What about the TGI [12] of the same molecule?
**A.** 277 nM

**Q.** And the GI50 [13]?
**A.** 16.9 nM

**Q.** What about the TGI [13] of the same molecule?
**A.** 35 nM

**Q.** And the GI50 [14]?
**A.** 54.7 nM

**Q.** And the TGI [14]?
**A.** 268 nM

**Q.** And the GI50 [15]?
**A.** 90.8 nM

**Q.** And the TGI [15]?
**A.** 298 nM

**Q.** And the GI50 [16]?
**A.** 20.7 nM

**Q.** What about the TGI [16] of the same molecule?
**A.** 35.2 nM

**Q.** And the GI50 [17]?
**A.** 27.5 nM

**Q.** And the TGI [17]?
**A.** 81.1 nM

**Q.** And the GI50 [18]?
**A.** 22.7 nM

**Q.** And the TGI [18]?
**A.** 65.5 nM

**Q.** What about the GI50 [19] of the same molecule?
**A.** 67.6 nM

**Q.** And the TGI [19]?
**A.** 1100 nM

**Q.** And the GI50 [20]?
**A.** 50.7 nM

**Q.** What about the TGI [20] of the same molecule?
**A.** 165 nM

**Q.** And the GI50 [21]?
**A.** 14.9 nM

**Q.** And the TGI [21]?
**A.** 31.4 nM

**Q.** And the GI50 [22]?
**A.** 111 nM

**Q.** What about the TGI [22] of the same molecule?
**A.** 299 nM

**Q.** What about the GI50 [23] of the same molecule?
**A.** 33.6 nM

**Q.** And the TGI [23]?
**A.** 51.3 nM

**Q.** What about the GI50 [24] of the same molecule?
**A.** 20.9 nM

**Q.** And the TGI [24]?
**A.** 39.4 nM

**Q.** What about the GI50 [25] of the same molecule?
**A.** 33.8 nM

**Q.** And the TGI [25]?
**A.** 126 nM

**Q.** And the GI50 [26]?
**A.** 19.8 nM

**Q.** And the TGI [26]?
**A.** 45.2 nM

**Q.** What about the GI50 [27] of the same molecule?
**A.** 62.2 nM

**Q.** What about the TGI [27] of the same molecule?
**A.** 243 nM

**Q.** And the GI50 [28]?
**A.** 71.4 nM

**Q.** And the TGI [28]?
**A.** 1310 nM

**Q.** What about the GI50 [29] of the same molecule?
**A.** < 10 nM

**Q.** And the GI50 [30]?
**A.** 27.5 nM

**Q.** What about the TGI [30] of the same molecule?
**A.** 81.7 nM

**Q.** And the GI50 [31]?
**A.** 16.5 nM

**Q.** What about the TGI [31] of the same molecule?
**A.** 30.9 nM

**Q.** What about the GI50 [32] of the same molecule?
**A.** 235 nM

**Q.** And the TGI [32]?
**A.** 781 nM

**Q.** What about the GI50 [33] of the same molecule?
**A.** 17.5 nM

**Q.** And the TGI [33]?
**A.** 34 nM

**Q.** What about the GI50 [34] of the same molecule?
**A.** 37.7 nM

**Q.** And the TGI [34]?
**A.** 170 nM

**Q.** What about the GI50 [35] of the same molecule?
**A.** 32.9 nM

**Q.** And the TGI [35]?
**A.** 62.8 nM

**Q.** And the GI50 [36]?
**A.** 29.2 nM

**Q.** And the TGI [36]?
**A.** 115 nM

**Q.** What about the GI50 [37] of the same molecule?
**A.** 29.3 nM

**Q.** And the TGI [37]?
**A.** 66.1 nM

**Q.** And the GI50 [38]?
**A.** 16.6 nM

**Q.** What about the TGI [38] of the same molecule?
**A.** 32 nM

**Q.** What about the GI50 [39] of the same molecule?
**A.** 11.1 nM

**Q.** What about the TGI [39] of the same molecule?
**A.** 23.4 nM

**Q.** What about the GI50 [40] of the same molecule?
**A.** < 10 nM

**Q.** What about the GI50 [41] of the same molecule?
**A.** 18 nM

**Q.** And the TGI [41]?
**A.** 33 nM

**Q.** What about the GI50 [42] of the same molecule?
**A.** 34.7 nM

**Q.** And the TGI [42]?
**A.** 2660 nM

**Q.** And the GI50 [43]?
**A.** 31.2 nM

**Q.** And the TGI [43]?
**A.** 155 nM

**Q.** And the GI50 [44]?
**A.** 26.3 nM

**Q.** What about the TGI [44] of the same molecule?
**A.** 66.1 nM

**Q.** What about the GI50 [45] of the same molecule?
**A.** 82.1 nM

**Q.** And the TGI [45]?
**A.** 219 nM

**Q.** What about the GI50 [46] of the same molecule?
**A.** 61.6 nM

**Q.** And the TGI [46]?
**A.** 263 nM

**Q.** What about the GI50 [47] of the same molecule?
**A.** 83 nM

**Q.** What about the TGI [47] of the same molecule?
**A.** 396 nM

**Q.** And the GI50 [48]?
**A.** 572 nM

**Q.** What about the TGI [48] of the same molecule?
**A.** 6500 nM

**Q.** What about the GI50 [49] of the same molecule?
**A.** 20.8 nM

**Q.** What about the TGI [49] of the same molecule?
**A.** 71.2 nM

**Q.** And the GI50 [50]?
**A.** 40.6 nM

**Q.** What about the TGI [50] of the same molecule?
**A.** 136 nM

**Q.** What about the GI50 [51] of the same molecule?
**A.** 11.1 nM

**Q.** What about the TGI [51] of the same molecule?
**A.** 23.6 nM

**Q.** What about the GI50 [52] of the same molecule?
**A.** 46.7 nM

**Q.** And the TGI [52]?
**A.** 457 nM

**Q.** And the GI50 [53]?
**A.** 10.9 nM

**Q.** What about the TGI [53] of the same molecule?
**A.** 23 nM

**Q.** And the GI50 [54]?
**A.** 80.2 nM

**Q.** And the TGI [54]?
**A.** 590 nM

**Q.** And the GI50 [55]?
**A.** 17.7 nM

**Q.** What about the TGI [55] of the same molecule?
**A.** 34 nM

**Q.** And the GI50 [56]?
**A.** 55.5 nM

**Q.** And the TGI [56]?
**A.** 236 nM

**Q.** And the GI50 [57]?
**A.** 20 nM

**Q.** And the TGI [57]?
**A.** 36.7 nM

**Q.** What about the GI50 [58] of the same molecule?
**A.** 18.9 nM

**Q.** What about the TGI [58] of the same molecule?
**A.** 38.7 nM
